These results are taken from patent EP3262036B1, “THERAPEUTIC PYRIDAZINE COMPOUNDS AND USES THEREOF” (priority 2015, dated 2016).

Chain of BRG1 (P51532 1448-1575): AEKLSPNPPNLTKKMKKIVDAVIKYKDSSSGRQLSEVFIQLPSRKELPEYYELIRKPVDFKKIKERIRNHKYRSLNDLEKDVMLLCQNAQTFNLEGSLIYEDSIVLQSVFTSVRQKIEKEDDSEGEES

This assay concerns the target BRG1 (Homo sapiens, UniProt P51532). The assay is described as follows: biochemical. In kind it is binding. Particulars: BRG1 HTRF IC50 (µM). An excerpt:
IC50 measurements for inhibitors using BRG1 TR-FRET Binding Assay
Background: Time-resolved FRET reads energy transfer from a long-lived donor to a nearby acceptor.
For orientation: IC50 means the concentration that gives 50% inhibition. A high value points to lower potency. Turning to `CS(=O)(=O)N1C2CCC1CN(c1cc(-c3ccccc3O)nnc1N)C2` [Example 67, 2-(6-amino-5-(8-(methylsulfonyl)-3,8-diazabicyclo[3.2.1]octan-3-yl)pyridazin-3-yl)phenol], it took 0.0294 µM to reach half-maximal inhibition (IC50).
With `C[C@@H]1CN(c2cc(-c3ccccc3O)nnc2N)CCN1S(=O)(=O)c1nccn1C` [Example 118, (R)-2-(6-amino-5-(3-methyl-4-((1-methyl-1H-imidazol-2-yl)sulfonyl)piperazin-1-yl)pyridazin-3-yl)phenol] the figure was 0.0281 µM.
With `Nc1nnc(-c2ccccc2O)cc1N1CC2CC1CN2c1ccccn1` (stereo not drawn) [Example 41, 2-(6-amino-5-(5-(pyridin-2-yl)-2,5-diazabicyclo[2.2.1]heptan-2-yl)pyridazin-3-yl)phenol] the figure was 0.0282 µM; with `C[C@@H]1CN(c2cc(-c3ccccc3O)nnc2N)CCN1Cc1nccn1C` [Example 93, (R)-2-(6-amino-5-(3-methyl-4-((1-methyl-1H-imidazol-2-yl)methyl)piperazin-1-yl)pyridazin-3-yl)phenol], 0.0238 µM; with `CS(=O)(=O)CCN1CCN(c2cc(-c3ccccc3O)nnc2N)CC1` [Example 26, 2-(6-amino-5-(4-(2-(methylsulfonyl)ethyl)piperazin-1-yl)pyridazin-3-yl)phenol], 0.0978 µM.
With `Nc1nnc(-c2ccccc2O)cc1N1CC2CCC(C1)N2c1cnccn1` [Example 50, 2-(6-amino-5-(8-(pyrazin-2-yl)-3,8-diazabicyclo[3.2.1]octan-3-yl)pyridazin-3-yl)phenol] the figure was 0.0106 µM; with `CC1CN(c2cc(-c3ccccc3O)nnc2N)CC(C)N1Cc1ccccc1` (stereo not drawn) [Example 37, 2-(6-amino-5-(4-benzyl-3,5-dimethylpiperazin-1 - yl)pyridazin-3-yl)phenol], 0.102 µM.
`CS(=O)(=O)N1CCC(c2cc(-c3ccccc3O)nnc2N)CC1` [Example 228, 2-(6-amino-5-(1-(methylsulfonyl)piperidin-4-yl)pyridazin-3-yl)phenol] yielded an IC50 of 0.0537 µM.
With `Nc1nnc(-c2ccccc2O)cc1N1C[C@@H]2C[C@H]1CN2Cc1ccccc1` [Example 17, 2-(6-amino-5-((1S,4S)-5-benzyl-2,5-diazabicyclo[2.2.1]heptan-2-yl)pyridazin-3-yl)phenol] the figure was 0.147 µM; with `Nc1nnc(-c2ccccc2O)cc1N1CCN(C(=O)c2ccccc2)CC1` [Example 61, (4-(3-amino-6-(2-hydroxyphenyl)pyridazin-4-yl)piperazin-1-yl)(phenyl)methanone], 0.0348 µM; with `Nc1nnc(-c2ccccc2O)cc1OC1CCCC1` [Example 176, 2-(6-amino-5-(cyclopentyloxy)pyridazin-3-yl)phenol], 0.0371 µM.
With `CN1CCC(Oc2cc(-c3ccccc3O)nnc2N)CC1` [Example 172, 2-(6-amino-5-((1-methylpiperidin-4-yl)oxy)pyridazin-3-yl)phenol] the figure was 0.161 µM.
With `Cn1cc(N2C3CCC2CN(c2cc(-c4ccccc4O)nnc2N)C3)cn1` [Example 48, 2-(6-amino-5-(8-(1-methyl-1H-pyrazol-4-yl)-3,8-diazabicyclo[3.2.1]octan-3-yl)pyridazin-3-yl)phenol] the figure was 0.0309 µM; with `Nc1nnc(-c2ccccc2O)cc1OC1CCc2ccccc21` (stereo not drawn) [Example 182, 2-(6-amino-5-((2,3-dihydro-1H-inden-1-yl)oxy)pyridazin-3-yl)phenol], 0.606 µM; with `CC(C)(C)OC(=O)N1CCC(c2cc(-c3ccccc3O)nnc2N)C1` (stereo not drawn) [Example 212, tert-butyl 3-(3-amino-6-(2-hydroxyphenyl)pyridazin-4-yl)pyrrolidine-1-carboxylate], 0.0694 µM.
In the case of `C[C@H](C(=O)N(C)C)n1cc(-c2cc(-c3ccccc3O)nnc2N)cn1` [Example 195, 2-(4-(3-Amino-6-(2-hvdroxyphenyl)pyridazin-4-vl)-1H-pvrazol-1-yl)-N,N-dimethylpropanamide], the midpoint of inhibition, the IC50, lay at 0.0217 µM.
With `C[C@H](C1CCN(c2cc(-c3ccccc3O)nnc2N)CC1)N(C)C` [Example 65, (R)-2-(6-amino-5-(4-(1-(dimethylamino)ethyl)piperidin-1-yl)pyridazin-3-yl)phenol] the figure was 0.0276 µM; with `Nc1nnc(-c2ccccc2O)cc1N1CCC2(CC1)C(=O)Nc1ccccc12` [Example 78, 1'-(3-amino-6-(2-hydroxyphenyl)pyridazin-4-yl)spiro[indoline-3,4'-piperidin]-2-one], 0.0758 µM.
The molecule `Cn1cc(CN2CCN(c3cc(-c4ccccc4O)nnc3N)CC2)cn1` [Example 107, 2-[6-amino-5-[4-[(1-methylpyrazol-4-yl)methyl]piperazin-1-yl]pyridazin-3-yl]phenol] showed an IC50 of 0.0877 µM.
With `CC1CN(c2cc(-c3ccccc3O)nnc2N)CCN1C(=O)C(C)(C)O` (stereo not drawn) [Example 134, 1-(4-(3-amino-6-(2-hydroxyphenyl)pyridazin-4-yl)-2-methylpiperazin-1-yl)-2-hydroxy-2-methylpropan-1-one] the figure was 0.0349 µM; with `CC(C)(O)C1CCN(c2cc(-c3ccccc3O)nnc2N)CC1` [Example 20, 2-(6-amino-5-(4-(2-hydroxypropan-2-yl)piperidin-1-yl)pyridazin-3-yl)phenol], 0.0358 µM.
With `Nc1nnc(-c2ccccc2O)cc1C1CC1` [Example 190, 2-(6-amino-5-cyclopropylpyridazin-3 - yl)phenol] the figure was 0.0176 µM; with `CC1CN(c2cc(-c3ccccc3O)nnc2N)CCN1Cc1ccccc1` (stereo not drawn) [Example 22, 2-(6-amino-5-(4-benzyl-3-methylpiperazin-1-yl)pyridazin-3-yl)phenol], 0.0421 µM.
With `CC1CN(c2cc(-c3ccccc3O)nnc2N)CCC1(O)c1ccccc1` (stereo not drawn) [Example 44, 1-(3-amino-6-(2-hydroxyphenyl)pyridazin-4-yl)-3-methyl-4-phenylpiperidin-4-ol] the figure was 0.0253 µM.
Regarding `Nc1nnc(-c2ccccc2O)cc1N1CCN(C(=O)c2cncs2)C(CO)C1` (stereo not drawn) [Example 143, (4-(3-amino-6-(2-hydroxyphenyl)pyridazin-4-yl)-2-(hydroxymethyl)piperazin-1-yl)(thiazol-5-yl)methanone], the IC50 was 0.0206 µM.
With `C[C@@H]1CN(c2cc(-c3ccccc3O)nnc2N)C[C@@H](C)O1` [Example 242, 2-[6-amino-5-[(2R,6R)-2,6-dimethylmorpholin-4-yl]pyridazin-3-yl]phenol] the figure was 0.0589 µM; with `Nc1nnc(-c2ccccc2O)cc1OC1CCCN(c2ccccc2)C1` (stereo not drawn) [Example 183, 2-(6-amino-5-((1-phenylpiperidin-3-yl)oxy)pyridazin-3-yl)phenol], 0.0172 µM.
With `CN1CCCN(c2cc(-c3ccccc3O)nnc2N)CC1` [Example 2, 2-(6-amino-5-(4-methyl-1,4-diazepan-1-yl)pyridazin-3-yl)phenol] the figure was 0.296 µM; with `Nc1nnc(-c2ccccc2O)cc1N1CCNC(=O)C1` [Example 53, 4-(3-amino-6-(2-hydroxyphenyl)pyridazin-4-yl)piperazin-2-one], 0.316 µM.
With `Nc1nnc(-c2ccccc2O)cc1N1CCN(c2ccccc2)CC1` [Example 13, 2-(6-amino-5-(4-phenylpiperazin-1-yl)pyridazin-3-yl)phenol] the figure was 0.0321 µM; with `Nc1nnc(-c2ccccc2O)cc1N1CC2CCC(C1)N2c1ccc(C(=O)O)nc1` [Example 88, 5-(3-(3-amino-6-(2-hydroxyphenyl)pyridazin-4-yl)-3,8-diazabicyclo[3.2.1]octan-8-yl)picolinic acid], 0.218 µM.
`Nc1nnc(-c2ccccc2O)cc1OC1CCCNC1` (stereo not drawn) [Example 245, 2-(6-amino-5-(piperidin-3-yloxy)pyridazin-3-yl)phenol]: it took 0.281 µM to reach half-maximal inhibition (IC50).
With `CC1CN(c2cc(-c3ccccc3O)nnc2N)CCN1C(=O)Cc1ccccn1` (stereo not drawn) [Example 125, 1-(4-(3-amino-6-(2-hydroxyphenyl)pyridazin-4-yl)-2-methylpiperazin-1-yl)-2-(pyridin-2-yl)ethan-1-one] the figure was 0.0426 µM; with `Nc1nnc(-c2ccccc2O)cc1O[C@H]1CCCC[C@@H]1c1ccccc1` [Example 165, 2-(6-amino-5-(((1,2-trans)-2-phenylcyclohexyl)oxy)pyridazin-3-yl)phenol], 0.977 µM; with `Cn1cc(N2CCN(c3cc(-c4ccccc4O)nnc3N)CC2)cn1` [Example 68, 2-(6-amino-5-(4-(1-methyl-1H-pyrazol-4-yl)piperazin-1-yl)pyridazin-3-yl)phenol], 0.0367 µM.
With `CC(C)[C@H](N)C(=O)N1CCN(c2cc(-c3ccccc3O)nnc2N)C[C@@H]1C` [Example 158, 2-Amino-1-((R)-4-(3-amino-6-(2-hydroxyphenyl)pvridazin-4-yl)-2-methylpiperazin-1-yl)-3-methylbutan-1-one] the figure was 0.113 µM.
With `C[C@H]1CN(c2cc(-c3ccccc3O)nnc2N)CCN1C(=O)C(C)(C)O` [Example 146, (S)-1-(4-(3-amino-6-(2-hydroxyphenyl)pyridazin-4-yl)-2-methylpiperazin-1-yl)-2-hydroxy-2-methylpropan-1-one] the figure was 0.0458 µM; with `Nc1nnc(-c2ccccc2O)cc1N1CC(OCc2ccccc2)C1` [Example 58, 2-(6-amino-5-(3-(benzyloxy)azetidin-1-yl)pyridazin-3-yl)phenol], 0.0252 µM; with `Nc1nnc(-c2ccccc2O)cc1N1CCN(Cc2ccccc2)C(=O)C1` [Example 14, 4-(3-amino-6-(2-hydroxyphenyl)pyridazin-4-yl)-1-benzylpiperazin-2-one], 0.0735 µM.
For the molecule `C[C@H]1CN(c2cc(-c3ccccc3O)nnc2N)CCN1C(=O)c1cccnc1` [Example 155], the IC50 turned out to be 0.166 µM.
With `CNC(=O)CN1C2CCC1CN(c1cc(-c3ccccc3O)nnc1N)C2` [Example 79, 2-(3-(3-amino-6-(2-hydroxyphenyl)pyridazin-4-yl)-3,8-diazabicyclo[3.2.1]octan-8-yl)-N-methylacetamide] the figure was 0.139 µM.
With `CC1CN(c2cc(-c3ccccc3O)nnc2N)CCN1C(=O)c1ccccc1` (stereo not drawn) [Example 62, (4-(3-amino-6-(2-hydroxyphenyl)pyridazin-4-yl)-2-methylpiperazin-1-yl)(phenyl)methanone] the figure was 0.0117 µM.
